# Experimental data from patent US20240209028A1, “CNP COMPOUNDS” (priority 2022, published 2024).
# Starred links: 1 amine or outer side, 2 acyl side, 3 side chain; linkers in the order of their positions; H or OH if unused. Positions of bridges follow the written chain, without caps; N, C: chain ends. Residues, ends and D or L forms follow the SMILES beside them. *: point of attachment. C18 diacid = O=C(O)CCCCCCCCCCCCCCCCC(=O)*; γGlu = O=C(O)[C@H](CCC(=O)[*:2])N[*:1]; AEEA = NCCOCCOCC(=O)O
# Assay: High-Molecular-Weight-Protein (HMWP) formation by SEC-UPLC
# Assay type: physicochemical
# Conditions: increase over two weeks at 37° C.
# Procedure: In order to assess the propensity of CNP compounds to form covalent dimers or oligomers when formulated the High-Molecular-Weight-Protein content of CNP compound formulations at pH 4.0 and 6.5 were determined.
# Procedure: The relative amount of covalent HMWP was assessed using SEC-UPLC. SEC-UPLC was conducted using a Waters UPLC Protein BEH SEC column, 125A, 4.6×150 mm, 1.7 μm, with isocratic elution (0.3 M NaCl, 10 mM NaH2PO4 and 5 mM H3PO4, 50% (v/v) isopropanol, pH 2.4) with a flow rate of 0.3 mL/min, a column temperature at 50° C. with UV-detection at 215 nm. The total area of peaks eluting prior to the monomeric main peak was termed HMWP and given on a percentage scale relative to the total peptide peak area.
# (§1) Results: HMWP Formation Following 2-Weeks Quiescent Incubation at 37° C.: Samples at pH 4.0 were prepared as described in Example 5 and the amount of HMWP was determined as described above. Samples were incubated for two weeks at 37° C. and the amount of HMWP was determined again. The increase in HMWP over two weeks incubation at 37° C. are reported in Table 10 (in case the incubation period deviated from two weeks the increase in HMWP was normalized to two weeks assuming a constant formation rate).
# as §1, with “Samples” for “Results: HMWP Formation Following 2-Weeks Quiescent Incubation at 37° C.: Samples”, “6.5” for “4.0”, “11” for “10”
Compound,"2-Week HMWP formation at pH 6.5 (%), % relative to total peak area [%]","2-Week HMWP formation at pH 4.0 (%), % relative to total peak area (pH 4.0) [%]"
CC[C@H](C)[C@@H]1NC(=O)[C@H](CCCNC(=N)N)NC(=O)[C@H](CC(=O)O)NC(=O)[C@H](CC(C)C)NC(=O)[C@@H]2CCCN2C(=O)[C@H](CC(C)C)NC(=O)CNC(=O)[C@H](Cc2ccccc2)NC(=O)[C@@H](NC(=O)CNC(=O)[C@H](CCC(N)=O)NC(=O)[C@H](CO)NC(=O)[C@H](CC(C)C)NC(=O)CNC(=O)[C@H](CCCCN)NC(=O)[C@H](CCCCN)NC(=O)[C@H](CCC(N)=O)NC(=O)[C@H](C)NC(=O)CNC(=O)[C@H](CCCCN)NC(=O)[C@H](Cc2ccc(O)cc2)NC(=O)[C@H](CCCCN)NC(=O)[C@H](CCCNC(=N)N)NC(=O)[C@H](C)NC(=O)[C@H](CCC(N)=O)NC(=O)[C@@H]2CCCN2C(=O)[C@H](Cc2c[nH]cn2)NC(=O)[C@H](CCC(=O)O)NC(=O)[C@H](CCC(N)=O)NC(=O)COCCOCCNC(=O)COCCOCCNC(=O)COCCOCCNC(=O)COCCOCCNC(=O)CC[C@H](NC(=O)CC[C@H](NC(=O)CC[C@H](NC(=O)CC[C@H](NC(=O)CC[C@H](NC(=O)CCCCCCCCCCCCCCCCC(=O)O)C(=O)O)C(=O)O)C(=O)O)C(=O)O)C(=O)O)CSSC[C@@H](C(=O)O)NC(=O)CNC(=O)[C@H](CC(C)C)NC(=O)CNC(=O)[C@H](CO)NC(=O)[C@H](CC(C)C)NC(=O)[C@H](CO)NC(=O)CNC1=O [compound 1406] ({C18 diacid-γGlu-γGlu-γGlu-γGlu-γGlu-AEEA-AEEA-AEEA-AEEA}-QEHPQARKYKGAQKKGLSQGCFGLPLDRIGSLSGLGC-OH; disulfide 21-37),2.77,–
CC[C@H](C)[C@@H]1NC(=O)[C@H](CCCNC(=N)N)NC(=O)[C@H](CC(=O)O)NC(=O)[C@H](CC(C)C)NC(=O)[C@@H]2CCCN2C(=O)[C@H](CC(C)C)NC(=O)CNC(=O)[C@H](Cc2ccccc2)NC(=O)[C@@H](NC(=O)CNC(=O)[C@H](CO)NC(=O)[C@H](CO)NC(=O)[C@@H](NC(=O)CNC(=O)[C@H](CCCCN)NC(=O)[C@H](CCCCN)NC(=O)[C@H](CCC(N)=O)NC(=O)[C@H](C)NC(=O)CNC(=O)[C@H](Cc2c[nH]cn2)NC(=O)[C@H](Cc2ccc(O)cc2)NC(=O)[C@H](CCCCN)NC(=O)[C@H](CCCNC(=N)N)NC(=O)[C@H](C)NC(=O)COCCOCCNC(=O)COCCOCCNC(=O)CC[C@H](NC(=O)CC[C@H](NC(=O)CC[C@H](NC(=O)CCCCCCCCCCCCCCCCC(=O)O)C(=O)O)C(=O)O)C(=O)O)C(C)C)CSSC[C@@H](C(=O)O)NC(=O)CNC(=O)[C@H](CC(C)C)NC(=O)CNC(=O)[C@H](CO)NC(=O)[C@H](CC(C)C)NC(=O)[C@H](CO)NC(=O)CNC1=O [compound 1422] ({C18 diacid-γGlu-γGlu-γGlu-AEEA-AEEA}-ARKYHGAQKKGVSSGCFGLPLDRIGSLSGLGC-OH; disulfide 16-32),–,36
CC[C@H](C)[C@@H]1NC(=O)[C@H](CCCNC(=N)N)NC(=O)[C@H](CC(=O)O)NC(=O)[C@H](CC(C)C)NC(=O)[C@@H]2CCCN2C(=O)[C@H](CC(C)C)NC(=O)CNC(=O)[C@H](Cc2ccccc2)NC(=O)[C@@H](NC(=O)CNC(=O)[C@H](CCC(N)=O)NC(=O)[C@H](CO)NC(=O)CNC(=O)CNC(=O)[C@H](CCCCN)NC(=O)[C@H](Cc2c[nH]cn2)NC(=O)[C@H](CCC(N)=O)NC(=O)[C@H](C)NC(=O)CNC(=O)[C@H](CCC(=O)O)NC(=O)[C@H](Cc2ccc(O)cc2)NC(=O)[C@H](CCCCN)NC(=O)[C@H](CCCNC(=N)N)NC(=O)[C@H](C)NC(=O)COCCOCCNC(=O)COCCOCCNC(=O)COCCOCCNC(=O)COCCOCCNC(=O)CC[C@H](NC(=O)CC[C@H](NC(=O)CCCCCCCCCCCCCCCCC(=O)O)C(=O)O)C(=O)O)CSSC[C@@H](C(=O)O)NC(=O)CNC(=O)[C@H](CC(C)C)NC(=O)CNC(=O)[C@H](CO)NC(=O)[C@H](CC(C)C)NC(=O)[C@H](CO)NC(=O)CNC1=O [compound 1432] ({C18 diacid-γGlu-γGlu-AEEA-AEEA-AEEA-AEEA}-ARKYEGAQHKGGSQGCFGLPLDRIGSLSGLGC-OH; disulfide 16-32),2.89,–
CC[C@H](C)[C@@H]1NC(=O)[C@H](CCCNC(=N)N)NC(=O)[C@H](CC(=O)O)NC(=O)[C@H](CC(C)C)NC(=O)[C@@H]2CCCN2C(=O)[C@H](CC(C)C)NC(=O)CNC(=O)[C@H](Cc2ccccc2)NC(=O)[C@@H](NC(=O)CNC(=O)[C@H](CCC(N)=O)NC(=O)[C@H](CO)NC(=O)[C@H](CC(C)C)NC(=O)CNC(=O)[C@H](CCCCN)NC(=O)[C@H](CCCCN)NC(=O)[C@H](CCC(N)=O)NC(=O)[C@H](C)NC(=O)CNC(=O)[C@H](CCCCN)NC(=O)[C@H](Cc2ccc(O)cc2)NC(=O)[C@H](CCCCN)NC(=O)[C@H](CCCNC(=N)N)NC(=O)[C@H](C)NC(=O)COCCOCCNC(=O)COCCOCCNC(=O)CC[C@H](NC(=O)CC[C@H](NC(=O)CC[C@H](NC(=O)CC[C@H](NC(=O)CC[C@H](NC(=O)CCCCCCCCCCCCCCCCC(=O)O)C(=O)O)C(=O)O)C(=O)O)C(=O)O)C(=O)O)CSSC[C@@H](C(=O)O)NC(=O)CNC(=O)[C@H](CC(C)C)NC(=O)CNC(=O)[C@H](CO)NC(=O)[C@H](CC(C)C)NC(=O)[C@H](CO)NC(=O)CNC1=O [compound 1453] ({C18 diacid-γGlu-γGlu-γGlu-γGlu-γGlu-AEEA-AEEA}-ARKYKGAQKKGLSQGCFGLPLDRIGSLSGLGC-OH; disulfide 16-32),3.94,–
CC[C@H](C)[C@@H]1NC(=O)[C@H](CCCNC(=N)N)NC(=O)[C@H](CC(=O)O)NC(=O)[C@H](CC(C)C)NC(=O)[C@@H]2CCCN2C(=O)[C@H](CC(C)C)NC(=O)CNC(=O)[C@H](Cc2ccccc2)NC(=O)[C@@H](NC(=O)CNC(=O)[C@H](CCC(N)=O)NC(=O)[C@H](CO)NC(=O)[C@H](CO)NC(=O)CNC(=O)[C@H](CCCCN)NC(=O)[C@H](CCCCN)NC(=O)[C@H](CCC(N)=O)NC(=O)[C@H](C)NC(=O)CNC(=O)[C@@H]2CCCN2C(=O)[C@H](C)NC(=O)[C@H](CCC(N)=O)NC(=O)CNC(=O)[C@@H]2CCCN2C(=O)[C@H](C)NC(=O)[C@H](CCC(N)=O)NC(=O)CNC(=O)[C@@H]2CCCN2C(=O)[C@H](C)NC(=O)[C@H](CCC(N)=O)NC(=O)CNC(=O)COCCOCCNC(=O)COCCOCCNC(=O)CC[C@H](NC(=O)CCCCCCCCCCCCCCCCC(=O)O)C(=O)O)CSSC[C@@H](C(=O)O)NC(=O)CNC(=O)[C@H](CC(C)C)NC(=O)CNC(=O)[C@H](CO)NC(=O)[C@H](CC(C)C)NC(=O)[C@H](CO)NC(=O)CNC1=O [compound 1457] ({C18 diacid-γGlu-AEEA-AEEA}-GQAPGQAPGQAPGAQKKGSSQGCFGLPLDRIGSLSGLGC-OH; disulfide 23-39),3.24,–
